Reference: ChEMBL document CHEMBL3872277, “1-Heteroarylpropan-2-ones as inhibitors of fatty acid amide hydrolase: Studies on structure-activity relationships and metabolic stability” (Bioorg Med Chem, 2017)
Converted amounts (≈) assume the structure as drawn.

Assays:
[1] = molecular target: T1, Fatty-acid amide hydrolase 1 (Rattus norvegicus, UniProt P97612); test: Inhibition of FAAH in rat brain microsomes using N-(2-hydroxyethyl)-4-pyren-1-ylbutanamide as substrate after 60 mins by fluorescence-based reversed phase HPLC analysis
T1 sequence (P97612 whole entry): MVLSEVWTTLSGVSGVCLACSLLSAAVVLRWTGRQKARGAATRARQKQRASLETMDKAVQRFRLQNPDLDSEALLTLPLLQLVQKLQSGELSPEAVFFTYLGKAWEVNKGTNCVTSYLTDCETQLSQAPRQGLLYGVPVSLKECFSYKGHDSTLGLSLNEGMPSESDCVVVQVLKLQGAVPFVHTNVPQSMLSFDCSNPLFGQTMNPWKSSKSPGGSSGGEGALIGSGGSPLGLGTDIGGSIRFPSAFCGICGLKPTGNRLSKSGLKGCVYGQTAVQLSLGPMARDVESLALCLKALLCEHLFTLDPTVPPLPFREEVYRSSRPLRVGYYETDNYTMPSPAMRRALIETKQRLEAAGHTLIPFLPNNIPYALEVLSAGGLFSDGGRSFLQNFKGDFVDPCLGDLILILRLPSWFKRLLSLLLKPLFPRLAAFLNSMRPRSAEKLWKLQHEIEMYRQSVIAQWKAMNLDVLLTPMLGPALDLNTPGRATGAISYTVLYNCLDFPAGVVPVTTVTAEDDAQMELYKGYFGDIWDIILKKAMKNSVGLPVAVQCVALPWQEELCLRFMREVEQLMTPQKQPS

[2] = Metabolic stability in rat liver S9 fraction assessed as amount of parent compound remaining after 30 mins under aerobic conditions in presence of NADPH by reversed HPLC -UV detection analysis; assay type: ADME, subcellular; settings: for Stability: s9, 0.5 h; for remaining at 0.5 h: liver S9 fraction, read-out: Stability
[3] = Thermodynamic aqueous solubility of the compound at pH 7.4 at 20 degC sonicated for 10 mins after 24 hrs UV-HPLC analysis; assay type: physicochemical; settings: read-out: Therm_solubility
[4] = Drug metabolism in rat liver S9 fraction assessed as alcohol derivative metabolite formation after 30 mins under aerobic conditions in presence of NADPH by reversed HPLC/MS analysis; assay type: ADME, subcellular; settings: s9, 0.5 h
[5] = Inhibition of pig platelet cytosolic phospholipase A2alpha using 1-stearoyl-2-arachidonoyl-sn-glycero-3-phosphocholine/1,2-dioleoyl-sn-glycerol as substrate after 60 mins by reversed phase HPLC-UV detection analysis; parameters: species or system Sus scrofa
[6] = Ratio of IC50 for pig platelet cytosolic phospholipase A2alpha to IC50 for FAAH in rat brain microsomes
[7] = Drug metabolism in rat liver S9 fraction assessed as hydroxylation product metabolite formation after 30 mins under aerobic conditions in presence of NADPH by reversed HPLC/MS analysis; assay type: ADME, subcellular; settings: s9, 0.5 h

Row | SMILES | IC50 [1] [nM] | remaining at 0.5 h [2] [%] | further results
1 | O=C(COc1ccc(-c2cccc(F)c2)cc1)Cn1nnc2ccccc21 | 14 |  | Stability [2]: Unstable
2 | CCCCCCCCc1ccc(OCC(=O)Cn2ncc3ncccc32)cc1 | 93 |  | 
3 | CC(Oc1ccc(-c2ccccc2)cc1)C(=O)Cn1ncnn1 (stereo unspecified) | 9 | 0 | solubility thermodynamic at 24 h [3]: 2 µg/mL (≈ 6.49 µM); IC50 [5]: 3300 nM; Ratio IC50 [6]: 100 to 500
4 | CCCCCCCCc1ccc(OCC(=O)Cn2nnc3cccnc32)cc1 | 13 |  | 
5 | CC(C(=O)COc1ccc(-c2ccccc2)cc1)n1cnnn1 (stereo unspecified) | > 10000 | 11 | 
6 | CCCCCCCCc1ccc(OCC(=O)Cn2nccn2)cc1 | 100 |  | 
7 | O=C1NC(=O)C(c2ccccc2)(c2ccccc2)N1 [PHENYTOIN] |  |  | solubility thermodynamic at 24 h [3]: 18 µg/mL (≈ 71.4 µM)
8 | O=C(COc1ccc(-c2ccccc2)cc1)Cn1cnnn1 | 43 | 0 | solubility thermodynamic at 24 h [3]: 11 µg/mL (≈ 37.4 µM); IC50 [5]: 4900 nM; Ratio IC50 [6]: 100 to 500
9 | CCC(Oc1ccc(-c2ccccc2)cc1)C(=O)Cn1nnc2ccccc21 (stereo unspecified) | 1800 | 51 | Drug metabolism [7]: Metabolite_Notdetected
10 | CCCCCCCCc1ccc(OCC(=O)Cn2ccnc2)cc1 | 410 |  | 
11 | CCCCCCCCc1ccc(OCC(=O)Cn2ncc3ccccc32)cc1 | 2300 |  | 
12 | CCCCCCCCCCOc1ccc(OCC(=O)COc2ccc(C(=O)O)cc2)cc1 |  |  | IC50 [5]: 6.5 nM
13 | CC(Oc1ccc(-c2ccccc2)cc1)C(=O)Cn1nnc2ccccc21 (stereo unspecified) | 13 | 23 | solubility thermodynamic at 24 h [3]: < 1 µg/mL; IC50 [5]: 6800 nM; Ratio IC50 [6]: 100 to 500
14 | CCCCCCCCc1ccc(OCC(=O)Cn2nnc3ncccc32)cc1 | 49 |  | 
15 | O=C(COc1ccc(-c2ccccc2)cc1)Cn1ncnn1 | 11 | 0 | solubility thermodynamic at 24 h [3]: 10 µg/mL (≈ 34 µM); IC50 [5]: 1800 nM; Ratio IC50 [6]: 100 to 500
16 | O=C(COc1ccc(-c2ccc(Cl)cc2)cc1)Cn1nnc2ccccc21 | 21 |  | Stability [2]: Unstable

Continued, in another order:

Row | IC50 [1] [nM] | remaining at 0.5 h [2] [%] | SMILES | further results
17 | 410 |  | CCCCCCCCc1ccc(OCC(=O)Cn2cnc3cccnc32)cc1 | 
18 | 12 | 0 | O=C(COc1ccc(-c2ccccc2)cc1)Cn1nnc2ccccc21 | solubility thermodynamic at 24 h [3]: 2 µg/mL (≈ 5.82 µM); Drug metabolism [4]: Metabolite_Detected; IC50 [5]: 2400 nM; Ratio IC50 [6]: 100 to 500
19 | 19 | 9 | CC(Oc1ccc(-c2ccccc2)cc1)C(=O)Cn1cnnn1 (stereo unspecified) | solubility thermodynamic at 24 h [3]: 4 µg/mL (≈ 13 µM); IC50 [5]: 6900 nM; Ratio IC50 [6]: 100 to 500
20 | 630 | 21 | CC(C(=O)COc1ccc(-c2ccccc2)cc1)n1nnc2ccccc21 (stereo unspecified) | 
21 | 1600 |  | CCCCCCCCc1ccc(OCC(=O)Cn2ncc3cccnc32)cc1 | 
22 | 15 |  | CCCCCCCCc1ccc(OCC(=O)Cn2nnc3ccccc32)cc1 | 
23 | 480 |  | CCCCCCCCc1ccc(OCC(=O)Cn2cnc3ccccc32)cc1 | 
24 | 11 |  | O=C(COc1ccc(-c2cccc(Cl)c2)cc1)Cn1nnc2ccccc21 | Stability [2]: Unstable
25 | 620 |  | CCCCCCCCc1ccc(OCC(=O)Cn2cnc3ncccc32)cc1 | 
26 | 53 |  | CCCCCCCCc1ccc(OCC(=O)Cn2cncn2)cc1 | 
27 | 12 |  | O=C(COc1ccc(-c2ccc(F)cc2)cc1)Cn1nnc2ccccc21 | Stability [2]: Unstable
28 | 12 | 29 | CC(Oc1ccc(-c2ccc(F)cc2)cc1)C(=O)Cn1nnc2ccccc21 (stereo unspecified) | 
29 | 840 |  | CCCCCCCCc1ccc(OCC(=O)Cn2cccn2)cc1 | 
30 | > 10000 |  | CCCCCCCCc1ccc(OCC(=O)Cn2ccc3ncccc32)cc1 | 
31 | 6300 | 0 | CC(C(=O)COc1ccc(-c2ccccc2)cc1)n1ncnn1 (stereo unspecified) | 
